In patent publication US6107271A, “Neuroactive peptides” (NYXIS Neuro Therapies, Inc., priority 1998, dated 2000):
Like-named read-outs stand apart in the source and are kept apart here. Positions of bridges follow the written chain, without caps; N, C: chain ends. Residues, ends and D or L forms follow the SMILES beside them. No end group written: not given here.

Assays:
rabbits = details: peripheral injections; cited from earlier work
[1] = target: T1, mouse NMDA receptor subunits z1 and e1 expressed in oocytes (Mus musculus, UniProt P35438); test: Electrophysiological NMDA specific activity assay, two-electrode voltage clamp in oocytes; type: cell-based
T1 construct: expressed in transfected cells
Protocol: Electrophysiological recordings are made with two-electrode voltage-clamp techniques, and standard oocyte expression system preparations (see Leonard and Kelso, 1990, Neuron 4:53-60; Kelso et al., 1992, J. Physiology 449:705-718). Oocytes are isolated and injected with mRNA for mouse NMDA receptor subunits: 70 nl of z1 (-- 1) RNA is co-injected with an equal volume of e1 (-- 1) RNA. After incubation for two days, recordings are made while clamping membrane potential at -80 mV. The standard recording solution contains 95 mM NaCl, 2 mM KCl, 3.8 mM BaCl2, and 5 mM HEPES. Mg^2+ is omitted because it blocks NMDA currents at some potentials; Ca^2+ is omitted because it can trigger the oocyte's endogenous Ca^2+ -dependent chloride current. Responses are evoked by the continuous perfusion of 3-5 ml of NMDA containing solutions. The recording chamber has a volume of about […].

[2] = target: T2, NMDA receptor complex, glycine co-agonist site (Rattus norvegicus, UniProt P35439); type: biochemical; details: rat hippocampus membranes, in the presence of 7-chlorokynurenic acid, ± S.E.M.
T2 construct: Crude synaptic membranes used in the assay were prepared using rat hippocampal tissue; from tissue; host or cells: rat hippocampus, crude synaptic membranes
Protocol: Polypeptides or amino acid compositions of the instant invention were tested for the ability to mimic the glycine co-agonist effect on the NMDA receptor using a previously validated [^3 H]MK-801 binding assay. This functional assay takes advantage of the fact that increased [^3 H]MK-801 binding by NMDA receptors can only occur upon receptor-binding channel opening. This is because the MK-801 binding site is located inside the ionophore of the NMDA receptor complex, and is thus only accessible upon the opening of the receptor complex channel. Thus increased binding of [^3 H]MK-801 is directly correlated with increased channel opening, in this assay, triggered by the binding of the polypeptides or amino acid compositions of the instant invention to the glycine co-agonist binding site.
To further refine the assay, a selective antagonist of the glycine binding site of the NMDA receptor-channel complex is added to the assay. The normal action of 7-chlorokynurenic acid is to selectively bind to the glycine site, and inhibit NMDA receptor channel opening, and thus inhibit the binding of [^3 H]MK-801 to the NMDA receptor complex.
Crude synaptic membranes used in the assay were prepared using rat hippocampal tissue (male Sprague-Dawly rats) and extensively washed using the procedures described previously (Haring et al., 1991, J. Neurochem. 57:323-331). Briefly, tissue which has been stored at -80-- C is homogenized in ice cold 5 mM Tris (pH 7.4) using a Brinkman Polytron® and then pelleted by centrifugation at 48,000 g for 20 minutes. The resulting supernatant is discarded, and the membranes washed three times in cold buffer. Pellets are then resuspended in 5 mM EDTA, 15 mM Tris (pH 7.4), and incubated for one hour at 37-- C. The membrane suspensions are then pelleted by centrifugation at 48,000g for 20 min and stored at -80-- C until use in the assay.
Frozen pellets are thawed at room temperature and washed three times by resuspension in 5 mM Tris (pH 7.4) and centrifugation. Final pellets are suspended at concentrations of 2 to 3 mg/ml in 5 mM Tris buffer (pH 7.4). Binding reactions are initiated by the addition of 200-- g of freshly prepared membranes to reaction mixtures (about 1 ml final volume) containing 1 nM [^3 H]MK-801 at 25-- C in the presence of a range of peptide concentrations and 60-- M 7-chlorokynurenic acid. Non-specific binding is determined using 10-- M unlabelled MK-801. Binding reactions are terminated by filtration through a Brandel 24-well cell harvester onto Whatman GF/B glass filters that have been presoaked in 0.25% polyethyleneimine for 30 minutes.

[3] = target: T2, NMDA receptor complex, glycine co-agonist site; type: biochemical; details: in the presence of 10 μM L-glutamate, ± S.E.M.

| NMDA current (FIG. 3B) ([1]; 100-- M NMDA with 10-- M glycine, -80 mV) | Molecule | learning rates in trace eyeblink conditioning (rabbits) | NMDA current (FIG. 3B) ([1]; NMDA alone, same cell) | [3H]MK-801 binding, percentage of control binding ([2]; 10^-5 M peptide) [%] | [3H]MK-801 binding, percentage of control binding ([2]; 10^-6 M peptide) [%] | [3H]MK-801 binding, percentage of control binding ([2]; 10^-7 M peptide) [%] | [3H]MK-801 binding, percentage of control binding ([2]; 10^-8 M peptide) [%] | [3H]MK-801 binding, percentage of control binding ([2]; 10^-9 M peptide) [%] | [3H]MK-801 binding, percentage of control binding ([3]; 10^-5 M peptide) [%] | [3H]MK-801 binding, percentage of control binding ([3]; 10^-6 M peptide) [%] | [3H]MK-801 binding, percentage of control binding ([3]; 10^-7 M peptide) [%] | [3H]MK-801 binding, percentage of control binding ([3]; 10^-8 M peptide) [%] |
| --- | --- | --- | --- | --- | --- | --- | --- | --- | --- | --- | --- | --- |
| – | N[C@@H]1CONC1=O [D-cycloserine] | doubled | – | – | – | – | – | – | – | – | – | – |
| – | CN[C@H](CC(=O)O)C(=O)O [NMDA, N-methyl-D-aspartate] | – | about 7 nA | – | – | – | – | – | – | – | – | – |
| – | C[C@@H](O)[C@@H]1NC(=O)[C@@H]2CCCN2C(=O)[C@@H]2CCCN2C(=O)[C@H]([C@@H](C)O)NC(=O)[C@H](CO)NC(=O)[C@H](Cc2ccc(O)cc2)NC(=O)[C@H](Cc2c[nH]cn2)NC(=O)[C@H](CCC(N)=O)NC(=O)[C@H](CCC(N)=O)NC(=O)[C@@H](N)CSSC[C@@H](C(=O)O)NC1=O [NT-10] (H-CQQHYSTPPTC-OH; disulfide 1-11) | – | – | 116 ± 12 | 128 ± 4 | 114 ± 3 | 90 ± 8 | 100 ± 2 | – | – | – | – |
| – | C[C@@H](O)[C@H](N)C(=O)N1CCC[C@H]1C(=O)N1CCC[C@H]1C(=O)N[C@H](C(=O)O)[C@@H](C)O [NT-13, Thr-Pro-Pro-Thr] (H-TPPT-OH) | – | – | 117 ± 7 | 129 ± 10 | 110 ± 10 | 103 ± 8 | 97 ± 8 | – | – | – | – |
| – | C[C@@H](O)[C@H](N)C(=O)N1CCC[C@H]1C(=O)N1CCC[C@H]1C(=O)O [NT-14, Thr-Pro-Pro] (H-Thr-Pro-Pro-OH) | – | – | 95 ± 4 | 98 ± 8 | 96 ± 5 | 101 ± 1 | 89 ± 6 | – | – | – | – |
| – | C[C@@H](O)[C@H](NC(=O)[C@@H]1CCCN1C(=O)[C@@H]1CCCN1)C(=O)O [NT-15, Pro-Pro-Thr] (H-Pro-Pro-Thr-OH) | – | – | 93 ± 1 | 108 ± 12 | 100 ± 7 | 103 ± 2 | 99 ± 21 | – | – | – | – |
| – | O=C(O)[C@@H]1CCCN1C(=O)[C@@H]1CCCN1 [NT-16, Pro-Pro] (H-Pro-Pro-OH) | – | – | 117 ± 12 | 103 ± 3 | 97 ± 6 | 89 ± 8 | 83 ± 9 | – | – | – | – |
| – | C[C@@H](O)[C@H](N)C(=O)N1CCC[C@H]1C(=O)N[C@H](C(=O)O)[C@@H](C)O [NT-17, Thr-Pro-Thr] (H-Thr-Pro-Thr-OH) | – | – | 119 ± 21 | 117 ± 14 | 128 ± 9 | 125 ± 17 | 122 ± 23 | – | – | – | – |
| about 284 nA | NCC(=O)O [glycine] | – | – | – | – | – | – | – | – | – | – | – |
| – | EDLAVYYSQQHYSTPPT [NT-5] | – | – | 112 ± 4 | 106 ± 2 | 114 ± 2 | 100 ± 9 | 109 ± 8 | – | – | – | – |
| – | FTISSVQAELDLAVYYSQQHYSTPPT [NT-7] | – | – | 100 ± 3 | 104 ± 0 | 97 ± 1 | 103 ± 4 | 96 ± 4 | – | – | – | – |
| – | KASQDVSTTVA [NT-1] | – | – | – | – | – | – | – | 73 ± 6 | 100 ± 2 | 97 ± 2 | – |
| – | QQHYS [NT-12, Gln-Gln-His-Tyr-Ser] | – | – | 106 ± 2 | 106 ± 9 | 95 ± 7 | 104 ± 10 | 95 ± 21 | – | – | – | – |
| – | QQHYSTPPT [NT-3] | – | – | 90 ± 1 | 111 ± 11 | 121 ± 4 | 123 ± 0 | 112 ± 20 | – | – | – | – |
| – | QQHYSTPPTFGGG [NT-8] | – | – | 115 ± 6 | 107 ± 6 | 108 ± 4 | 110 ± 5 | 105 ± 7 | – | – | – | – |
| – | QQHYSTPPTFGGGTKLE [NT-9] | – | – | 120 ± 3 | 112 ± 10 | 125 ± 5 | 126 ± 7 | 104 ± 12 | – | – | – | – |
| – | SASYRYT [NT-2, Ser-Ala-Ser-Tyr-Arg-Tyr-Thr] | – | – | – | – | – | – | – | 77 ± 12 | 106 ± 4 | 109 ± 15 | 80 ± 9 |
| – | SQQHYSTPPTS [NT-11] | – | – | 127 ± 21 | 120 ± 11 | 118 ± 4 | 111 ± 4 | 96 ± 23 | – | – | – | – |
| – | SVQAELDLAVYYSQQHYSTPPT [NT-6] | – | – | 91 ± 7 | 96 ± 1 | 101 ± 15 | 101 ± 9 | 95 ± 6 | – | – | – | – |
| – | VYYSQQHYSTPPT [NT-4] | – | – | 109 ± 10 | 110 ± 1 | 116 ± 2 | 106 ± 6 | 106 ± 2 | – | – | – | – |
